Experiments:
[1] = molecular target: T1, mouse Piezo1 (Mus musculus, UniProt E2JF22); test: Fura-2 intracellular Ca2+ assay, 96-well plate reader; type: cell-based
T1 construct: the Dooku1 and ruthenium red rows are from native C57BL/6J cardiac fibroblasts

[2] = molecular target: T2, Piezo1 (human cardiac fibroblasts, endogenous) (Homo sapiens, UniProt Q92508); test: as above; type: cell-based; conditions: activator (agonist); native human cardiac fibroblasts; 2.5 mM probenecid, 1.5 mM CaCl2, pH 7.4; estimate, Yoda1 limited to 10 μM by solubility
T2 construct: endogenous full-length channel in cultured human atrial cardiac fibroblasts; Yoda1 response reduced by Piezo1 siRNA
T2 sequence (Q92508 whole entry): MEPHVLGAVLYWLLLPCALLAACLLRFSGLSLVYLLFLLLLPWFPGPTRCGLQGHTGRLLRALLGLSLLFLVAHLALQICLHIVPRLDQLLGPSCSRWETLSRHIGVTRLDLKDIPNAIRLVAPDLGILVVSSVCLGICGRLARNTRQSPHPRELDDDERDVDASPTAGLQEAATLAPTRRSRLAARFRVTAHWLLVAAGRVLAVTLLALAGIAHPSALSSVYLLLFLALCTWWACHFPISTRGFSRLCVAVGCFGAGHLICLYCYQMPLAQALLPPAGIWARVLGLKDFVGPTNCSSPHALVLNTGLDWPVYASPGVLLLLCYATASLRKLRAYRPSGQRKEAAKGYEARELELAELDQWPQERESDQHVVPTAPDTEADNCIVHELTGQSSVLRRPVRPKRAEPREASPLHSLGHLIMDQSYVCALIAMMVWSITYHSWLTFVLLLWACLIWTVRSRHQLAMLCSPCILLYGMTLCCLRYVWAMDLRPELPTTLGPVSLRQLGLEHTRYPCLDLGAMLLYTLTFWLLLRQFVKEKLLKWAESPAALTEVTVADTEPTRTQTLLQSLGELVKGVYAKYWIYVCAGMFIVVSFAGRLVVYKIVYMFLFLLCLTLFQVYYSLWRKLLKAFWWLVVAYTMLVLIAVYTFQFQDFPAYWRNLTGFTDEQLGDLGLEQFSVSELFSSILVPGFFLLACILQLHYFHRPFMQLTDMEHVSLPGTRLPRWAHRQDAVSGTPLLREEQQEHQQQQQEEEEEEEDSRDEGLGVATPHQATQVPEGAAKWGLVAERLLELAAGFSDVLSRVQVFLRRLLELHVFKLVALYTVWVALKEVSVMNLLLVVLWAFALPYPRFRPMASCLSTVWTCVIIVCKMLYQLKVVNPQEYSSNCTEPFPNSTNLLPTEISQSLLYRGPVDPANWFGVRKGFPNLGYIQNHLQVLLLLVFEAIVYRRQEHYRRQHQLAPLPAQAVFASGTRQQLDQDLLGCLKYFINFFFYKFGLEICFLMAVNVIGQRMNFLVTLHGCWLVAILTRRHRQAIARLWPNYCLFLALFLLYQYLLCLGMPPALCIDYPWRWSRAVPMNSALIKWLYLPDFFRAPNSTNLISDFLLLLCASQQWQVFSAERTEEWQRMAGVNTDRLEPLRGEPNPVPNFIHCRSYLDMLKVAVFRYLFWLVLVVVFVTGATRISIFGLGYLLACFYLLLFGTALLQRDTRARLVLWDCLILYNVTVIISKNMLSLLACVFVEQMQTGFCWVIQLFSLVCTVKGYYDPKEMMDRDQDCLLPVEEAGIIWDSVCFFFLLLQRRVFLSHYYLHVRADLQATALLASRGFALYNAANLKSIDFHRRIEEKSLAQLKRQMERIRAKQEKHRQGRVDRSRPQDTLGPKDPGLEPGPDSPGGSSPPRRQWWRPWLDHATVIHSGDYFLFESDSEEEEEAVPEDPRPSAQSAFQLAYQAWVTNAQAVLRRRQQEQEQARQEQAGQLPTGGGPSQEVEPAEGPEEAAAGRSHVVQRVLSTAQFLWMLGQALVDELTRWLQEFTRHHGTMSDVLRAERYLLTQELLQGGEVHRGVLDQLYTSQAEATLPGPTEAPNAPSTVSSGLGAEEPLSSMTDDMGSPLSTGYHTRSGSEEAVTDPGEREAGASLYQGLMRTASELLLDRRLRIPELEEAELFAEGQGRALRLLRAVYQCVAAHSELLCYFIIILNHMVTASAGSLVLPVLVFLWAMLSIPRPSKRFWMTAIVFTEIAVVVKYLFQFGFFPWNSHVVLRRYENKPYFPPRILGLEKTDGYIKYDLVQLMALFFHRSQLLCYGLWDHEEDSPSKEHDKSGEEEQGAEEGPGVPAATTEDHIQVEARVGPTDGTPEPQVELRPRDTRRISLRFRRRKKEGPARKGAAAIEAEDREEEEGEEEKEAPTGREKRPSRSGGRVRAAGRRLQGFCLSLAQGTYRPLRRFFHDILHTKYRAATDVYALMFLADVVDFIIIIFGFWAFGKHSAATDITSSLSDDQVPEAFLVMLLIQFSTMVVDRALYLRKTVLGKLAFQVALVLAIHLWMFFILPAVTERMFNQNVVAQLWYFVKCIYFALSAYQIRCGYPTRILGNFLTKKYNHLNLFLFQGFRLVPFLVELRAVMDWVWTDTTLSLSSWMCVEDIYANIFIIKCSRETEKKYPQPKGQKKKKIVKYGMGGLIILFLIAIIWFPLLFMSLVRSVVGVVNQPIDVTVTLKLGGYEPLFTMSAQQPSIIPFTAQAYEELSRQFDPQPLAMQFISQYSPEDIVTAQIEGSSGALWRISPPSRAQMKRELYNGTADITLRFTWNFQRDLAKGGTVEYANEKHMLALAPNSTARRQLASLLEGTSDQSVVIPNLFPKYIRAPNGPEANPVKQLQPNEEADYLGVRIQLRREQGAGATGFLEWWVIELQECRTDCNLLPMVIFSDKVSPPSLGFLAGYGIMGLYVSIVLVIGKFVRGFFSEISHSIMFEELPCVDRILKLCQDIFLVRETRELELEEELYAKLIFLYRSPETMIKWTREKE

T1 sequence (E2JF22 whole entry): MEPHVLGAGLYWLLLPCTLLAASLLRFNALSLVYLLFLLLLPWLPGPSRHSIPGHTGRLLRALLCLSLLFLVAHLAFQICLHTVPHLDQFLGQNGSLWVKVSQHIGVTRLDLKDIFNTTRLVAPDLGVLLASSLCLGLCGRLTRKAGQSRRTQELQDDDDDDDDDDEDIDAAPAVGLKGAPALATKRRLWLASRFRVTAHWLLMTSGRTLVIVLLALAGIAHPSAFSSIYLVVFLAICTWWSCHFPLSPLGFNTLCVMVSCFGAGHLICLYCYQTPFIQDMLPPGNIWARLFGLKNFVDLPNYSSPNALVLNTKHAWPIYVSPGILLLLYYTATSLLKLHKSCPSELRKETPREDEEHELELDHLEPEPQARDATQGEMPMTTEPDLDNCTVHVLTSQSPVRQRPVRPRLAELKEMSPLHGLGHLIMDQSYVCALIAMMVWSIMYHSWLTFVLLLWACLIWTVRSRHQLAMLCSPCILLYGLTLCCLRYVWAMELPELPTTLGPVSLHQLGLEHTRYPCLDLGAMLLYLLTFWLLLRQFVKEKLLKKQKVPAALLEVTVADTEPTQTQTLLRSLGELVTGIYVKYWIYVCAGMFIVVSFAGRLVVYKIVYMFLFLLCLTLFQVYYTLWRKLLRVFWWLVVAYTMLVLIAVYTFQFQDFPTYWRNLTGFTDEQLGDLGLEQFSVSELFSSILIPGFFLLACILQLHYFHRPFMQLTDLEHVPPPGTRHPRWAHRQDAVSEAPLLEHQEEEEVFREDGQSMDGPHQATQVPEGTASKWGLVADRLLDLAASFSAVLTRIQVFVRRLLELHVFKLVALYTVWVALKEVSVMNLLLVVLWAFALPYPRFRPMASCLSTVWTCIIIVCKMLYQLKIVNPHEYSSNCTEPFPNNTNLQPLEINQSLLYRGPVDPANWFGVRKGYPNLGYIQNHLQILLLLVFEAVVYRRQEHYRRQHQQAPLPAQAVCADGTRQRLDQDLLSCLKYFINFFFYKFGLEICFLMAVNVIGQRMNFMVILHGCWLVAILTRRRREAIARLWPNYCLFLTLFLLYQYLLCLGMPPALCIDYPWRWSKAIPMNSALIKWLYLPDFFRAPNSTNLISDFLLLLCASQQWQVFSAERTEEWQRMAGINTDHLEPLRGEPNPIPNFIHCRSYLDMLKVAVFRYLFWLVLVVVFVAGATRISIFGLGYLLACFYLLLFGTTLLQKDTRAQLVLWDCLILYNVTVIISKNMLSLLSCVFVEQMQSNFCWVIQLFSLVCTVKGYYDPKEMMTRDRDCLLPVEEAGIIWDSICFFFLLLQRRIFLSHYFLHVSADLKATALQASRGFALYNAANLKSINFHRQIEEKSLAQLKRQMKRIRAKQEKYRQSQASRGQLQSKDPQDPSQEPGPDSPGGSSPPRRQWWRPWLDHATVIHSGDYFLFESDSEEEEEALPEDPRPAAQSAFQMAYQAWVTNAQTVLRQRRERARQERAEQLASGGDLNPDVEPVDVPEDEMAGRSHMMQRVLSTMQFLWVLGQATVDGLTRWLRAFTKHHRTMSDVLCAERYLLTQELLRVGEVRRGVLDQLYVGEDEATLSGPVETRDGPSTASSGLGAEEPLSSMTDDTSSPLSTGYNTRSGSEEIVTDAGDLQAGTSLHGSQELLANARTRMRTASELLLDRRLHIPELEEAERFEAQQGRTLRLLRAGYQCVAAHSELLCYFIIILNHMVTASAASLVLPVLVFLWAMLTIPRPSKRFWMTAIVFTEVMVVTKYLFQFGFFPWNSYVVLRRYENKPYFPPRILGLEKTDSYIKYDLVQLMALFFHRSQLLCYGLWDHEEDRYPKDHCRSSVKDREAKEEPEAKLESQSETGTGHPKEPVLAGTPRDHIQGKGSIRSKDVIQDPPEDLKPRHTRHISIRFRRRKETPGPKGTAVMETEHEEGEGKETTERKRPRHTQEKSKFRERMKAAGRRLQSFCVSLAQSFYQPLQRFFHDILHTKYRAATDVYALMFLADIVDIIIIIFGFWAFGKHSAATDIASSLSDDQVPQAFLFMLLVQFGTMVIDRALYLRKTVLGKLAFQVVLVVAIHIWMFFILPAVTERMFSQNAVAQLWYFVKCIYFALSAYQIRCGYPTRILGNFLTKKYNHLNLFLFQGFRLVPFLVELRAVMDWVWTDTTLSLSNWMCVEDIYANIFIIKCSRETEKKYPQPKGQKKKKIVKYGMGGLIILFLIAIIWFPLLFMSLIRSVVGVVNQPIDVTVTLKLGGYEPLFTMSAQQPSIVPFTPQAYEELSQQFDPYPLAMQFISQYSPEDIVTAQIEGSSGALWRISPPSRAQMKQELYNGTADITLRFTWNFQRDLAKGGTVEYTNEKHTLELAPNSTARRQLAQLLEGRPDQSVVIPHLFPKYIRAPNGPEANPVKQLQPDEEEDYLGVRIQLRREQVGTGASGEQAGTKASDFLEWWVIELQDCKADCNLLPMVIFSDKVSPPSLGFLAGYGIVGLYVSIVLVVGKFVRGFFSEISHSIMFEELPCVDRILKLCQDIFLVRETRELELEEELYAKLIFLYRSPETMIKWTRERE

- EC50 [1]: 0.33 µM
- EC50 [2]: 0.71 µM
SMILES: Clc1cccc(Cl)c1CSc1nnc(-c2cnccn2)s1 [Yoda1]

Reference: publication PMC6873183, “Mechanically activated Piezo1 channels of cardiac fibroblasts stimulate p38 mitogen-activated protein kinase activity and interleukin-6 secretion” (The Journal of Biological Chemistry, 2019)
